Data from patent publication US20130102595A1 (Curis, Inc., priority 2011, published 2013).

Columns and labels:
[1] = test system: HDACs (HeLa cell nuclear extracts); assay: HDAC enzymatic activity, Biomol Color de Lys system; assay type: biochemical; settings: 1 hour, 25° C.
Procedure, shortened: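 HeLa nuclear extract incubated with serially diluted compound and […] artificial substrate in 50 mM Tris/Cl pH 8.0, 137 mM NaCl, 2.7 mM KCl, 1 mM MgCl2. Run 1 h at 25 °C, stopped with developer. Fluorescence read (ex 350-380, em 440-460 nm); IC50 from sigmoidal dose-response fit.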

PI3Kα (p110α/p85α) = biological target: T1, PI3Kα (p110α/p85α) (Homo sapiens, UniProt P42336); assay: PI3Kα ADP-Glo assay; assay type: biochemical; settings: 20 μM PIP2, 10 μM ATP, 30 minutes
T1 construct: GST (N); made in house; host or cells: Baculovirus-infected Sf9 cells
T1 sequence (P42336 whole entry): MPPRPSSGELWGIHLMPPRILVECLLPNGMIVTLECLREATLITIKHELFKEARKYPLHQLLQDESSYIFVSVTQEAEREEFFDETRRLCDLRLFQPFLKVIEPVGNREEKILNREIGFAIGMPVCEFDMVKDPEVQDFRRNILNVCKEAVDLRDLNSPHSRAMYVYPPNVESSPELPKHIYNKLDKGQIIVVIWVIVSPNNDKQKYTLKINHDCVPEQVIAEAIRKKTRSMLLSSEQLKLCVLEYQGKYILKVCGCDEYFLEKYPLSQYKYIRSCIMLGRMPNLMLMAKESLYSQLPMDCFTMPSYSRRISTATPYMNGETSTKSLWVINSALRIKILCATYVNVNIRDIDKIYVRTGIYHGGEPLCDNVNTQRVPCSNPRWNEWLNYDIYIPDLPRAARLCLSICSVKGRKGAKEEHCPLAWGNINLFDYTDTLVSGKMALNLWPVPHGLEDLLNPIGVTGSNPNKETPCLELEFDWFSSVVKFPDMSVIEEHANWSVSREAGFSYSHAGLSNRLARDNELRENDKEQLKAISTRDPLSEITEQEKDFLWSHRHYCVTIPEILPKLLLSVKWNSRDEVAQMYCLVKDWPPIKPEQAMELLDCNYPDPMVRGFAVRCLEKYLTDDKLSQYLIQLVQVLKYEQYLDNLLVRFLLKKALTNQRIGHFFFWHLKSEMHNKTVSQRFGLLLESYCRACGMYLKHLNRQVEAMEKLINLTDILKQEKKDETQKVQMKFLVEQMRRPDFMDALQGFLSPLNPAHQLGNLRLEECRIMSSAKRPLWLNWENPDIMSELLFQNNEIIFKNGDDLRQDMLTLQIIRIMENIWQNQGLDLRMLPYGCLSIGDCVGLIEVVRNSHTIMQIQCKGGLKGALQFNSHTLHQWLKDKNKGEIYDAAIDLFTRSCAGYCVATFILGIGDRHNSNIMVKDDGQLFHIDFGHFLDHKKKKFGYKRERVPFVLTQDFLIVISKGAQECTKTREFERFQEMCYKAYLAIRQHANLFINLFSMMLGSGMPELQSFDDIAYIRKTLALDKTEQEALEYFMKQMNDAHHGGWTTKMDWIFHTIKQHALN
T1 sequence (P27986 whole entry partner): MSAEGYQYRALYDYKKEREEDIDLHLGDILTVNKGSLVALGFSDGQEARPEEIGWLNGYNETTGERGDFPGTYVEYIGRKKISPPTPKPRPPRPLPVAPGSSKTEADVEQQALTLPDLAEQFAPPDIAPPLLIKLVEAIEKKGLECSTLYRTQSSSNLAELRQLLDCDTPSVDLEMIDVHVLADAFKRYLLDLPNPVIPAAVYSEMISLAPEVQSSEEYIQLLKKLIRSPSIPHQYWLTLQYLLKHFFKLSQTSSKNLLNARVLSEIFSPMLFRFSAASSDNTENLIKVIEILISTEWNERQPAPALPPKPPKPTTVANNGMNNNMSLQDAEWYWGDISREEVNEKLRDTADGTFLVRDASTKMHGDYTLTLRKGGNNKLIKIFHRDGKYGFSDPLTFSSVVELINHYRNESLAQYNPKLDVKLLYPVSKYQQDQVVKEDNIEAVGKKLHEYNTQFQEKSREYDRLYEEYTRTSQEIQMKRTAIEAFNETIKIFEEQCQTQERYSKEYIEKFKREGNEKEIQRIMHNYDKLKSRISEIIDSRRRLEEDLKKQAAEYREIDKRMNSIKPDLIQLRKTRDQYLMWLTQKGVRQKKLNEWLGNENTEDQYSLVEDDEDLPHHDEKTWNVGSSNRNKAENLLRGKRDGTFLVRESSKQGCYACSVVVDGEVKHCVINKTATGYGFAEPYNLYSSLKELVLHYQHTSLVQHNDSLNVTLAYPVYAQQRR
Procedure, shortened: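 Recombinant full-length human GST-p110α/His-p85α, co-expressed in Sf9 cells, was incubated 30 min at room temperature with 20 μM PIP2 and 10 μM ATP. The buffer was 50 mM HEPES pH 7.4, 150 mM NaCl, 5 mM MgCl2, 1 mM DTT, 3 µM orthovanadate and 0.5% DMSO. ADP formed was detected by ADP-Glo luminescence.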

[2] = biological target: T2, mTor serine/threonine protein kinase (Homo sapiens, UniProt P42345); assay: mTor kinase radioisotope assay; assay type: biochemical; settings: 70 uM ATP, 40 minutes; read-out: m-TOR IC50
T2 construct: FLAG; made in house; host or cells: Baculovirus expression system in Sf21 cells
Protocol: (F) an In Vitro Assay which-Determines the Ability of a Test Compound to Inhibit mTor Serine/Threonine Protein Kinase.
The ability of compounds to inhibit mTor activity was assayed using standard radioisotope assay for kinase. Briefly, FLAG-tagged, recombinant full-length human mTor (GenBank accession No. NM_004958) was expressed using baculovirus expression system in Sf21 cells and purified using antibody affinity column. Purified enzyme was incubated with c-terminal fragment of p70S6K as it's substrate in the presence of ATP. p33 ATP tracers were included in the assay to monitor the enzyme activity. Final assay condition was with 50 mM HEPES pH 7.5, 1 mM EGTA, 0.01% Tween 20, 2 mg/ml substrate, 3 mM Manganese Chloride and 70 uM of ATP and was carried out at room temperature for 40 minutes. The reaction was then stopped by the addition of 3% phosphoric acid solution. 10 ul of the reaction was spotted onto a P30 filtermat and washed three times for 5 minutes in 75 mM phosphoric acid and once in methanol prior to drying and scintillation counting. Different concentrations of compounds were added to reaction to assess the activity of compounds to inhibit mTor kinase. IC50 was calculated using Prism software with sigmoidal dose-response curve fitting.

SMILES	IC50 [1]	IC50 (PI3Kα (p110α/p85α))	IC50 [2]	melting point
N#CCCN(Cc1cc2nc(-c3cccc4[nH]ncc34)nc(N3CCOCC3)c2s1)c1ncc(C(=O)NO)cn1 [Compound 99]	< 100 nM	< 100 nM	100 to 1000 nM	
CN(Cc1cc2nc(-c3c[nH]c4ccccc34)nc(N3CCOCC3)c2s1)c1ncc(C(=O)NO)cn1 [Compound 184]	< 100 nM	1000 to 10000 nM	100 to 1000 nM	
CN(Cc1cc2nc(-c3cccc4c3CC(=O)N4)nc(N3CCOCC3)c2s1)c1ncc(C(=O)NO)cn1 [Compound 178]	< 100 nM	> 10000 nM	> 10000 nM	
Cc1ncc(-c2nc(N3CCOCC3)c3sc(CN(C)c4ncc(C(=O)NO)cn4)cc3n2)s1 [Compound 311]	< 100 nM	100 to 1000 nM	> 10000 nM	
CN(Cc1cc2nc(-c3ccc(OCCO)nc3)nc(N3CCOCC3)c2s1)c1ncc(C(=O)NO)cn1 [Compound 256, N-Hydroxy-2-(((2-(6-(2-hydroxyethoxy)pyridin-3-yl)-4-morpholinothieno[3,2-d]pyrimidin-6-yl)methyl)(methyl)amino)pyrimidine-5-carboxamide]	< 100 nM	< 100 nM	> 10000 nM	143 to 145 °C
CN(Cc1cc2nc(-c3cccc4[nH]c(=O)[nH]c34)nc(N3CCOCC3)c2s1)c1ncc(C(=O)NO)cn1 [Compound 314]	< 100 nM	100 to 1000 nM	> 10000 nM	
CN(CCCCC(=O)NO)Cc1cc2nc(-c3cccc4[nH]ncc34)nc(N3CCOCC3)c2s1 [Compound 102, 5-(((2-(1H-indazol-4-yl)-4-morpholinothieno[3,2-d]pyrimidin-6-yl)methyl)(methyl)amino)-N-hydroxypentanamide]	100 to 1000 nM	100 to 1000 nM	100 to 1000 nM	120 to 122 °C
CN(Cc1cc2nc(-c3cccc4[nH]ncc34)nc(N3CCOCC3)c2s1)CC1CCN(c2ncc(C(=O)NO)cn2)CC1 [Compound 16, 2-(4-((((2-(1H-indazol-4-yl)-4-morpholinothieno[3,2-d]pyrimidin-6-yl)methyl)(methyl)amino)methyl)piperidin-1-yl)-N-hydroxypyrimidine-5-carboxamide]	100 to 1000 nM	< 100 nM	1000 to 10000 nM	174 to 175 °C
CN(Cc1cc2nc(-c3ccc(N)c(CO)c3)nc(N3CCOCC3)c2s1)c1ncc(C(=O)NO)cn1 [Compound 285, 2-(((2-(4-Amino-3-(hydroxymethyl)phenyl)-4-morpholinothieno[3,2-d]pyrimidin-6-yl)methyl)(methyl)amino)-N-hydroxypyrimidine-5-carboxamide]	< 100 nM	< 100 nM	< 100 nM	195 to 200 °C
CN(Cc1cc2nc(-c3cc(F)cc4[nH]ncc34)nc(N3CCOCC3)c2s1)c1ncc(C(=O)NO)cn1 [Compound 69, 2-(((2-(6-fluoro-1H-indazol-4-yl)-4-morpholinothieno[3,2-d]pyrimidin-6-yl)methyl)(methyl)amino)-N-hydroxypyrimidine-5-carboxamide]	< 100 nM	< 100 nM	1000 to 10000 nM	215 to 217 °C
CN(Cc1cc2nc(-c3cccc4c3CNC4=O)nc(N3CCOCC3)c2s1)c1ncc(C(=O)NO)cn1 [Compound 181]	< 100 nM	1000 to 10000 nM	> 10000 nM	
CN(CCCC(=O)NO)Cc1cc2nc(-c3cccc4[nH]ncc34)nc(N3CCOCC3)c2s1 [Compound 101, 4-(((2-(1H-indazol-4-yl)-4-morpholinothieno[3,2-d]pyrimidin-6-yl)methyl)(methyl)amino)-N-hydroxybutanamide]	> 10000 nM	100 to 1000 nM	100 to 1000 nM	115 to 118 °C
CN(C)c1ncc(-c2nc(N3CCOCC3)c3sc(CN(C)c4ncc(C(=O)NO)cn4)cc3n2)cn1 [Compound 117, 2-(((2-(2-(dimethylamino)pyrimidin-5-yl)-4-morpholinothieno[3,2-d]pyrimidin-6-yl)methyl)(methyl)amino)-N-hydroxypyrimidine-5-carboxamide]	< 100 nM	< 100 nM	1000 to 10000 nM	200 to 206 °C
CN(Cc1cc2nc(-c3cccc(C(N)=O)c3)nc(N3CCOCC3)c2s1)c1ncc(C(=O)NO)cn1 [Compound 142, 2-(((2-(3-carbamoylphenyl)-4-morpholinothieno[3,2-d]pyrimidin-6-yl)methyl)(methyl)amino)-N-hydroxypyrimidine-5-carboxamide]	< 100 nM	100 to 1000 nM	100 to 1000 nM	
CN(Cc1cc2nc(-c3cnn(C)c3)nc(N3CCOCC3)c2s1)c1ncc(C(=O)NO)cn1 [Compound 246, N-Hydroxy-2-(methyl((2-(1-methyl-1H-pyrazol-4-yl)-4-morpholinothieno[3,2-d]pyrimidin-6-yl)methyl)amino)pyrimidine-5-carboxamide]	< 100 nM	100 to 1000 nM	> 10000 nM	164 to 169 °C
COC(=O)CN(Cc1cc2nc(-c3cccc4[nH]ncc34)nc(N3CCOCC3)c2s1)c1ncc(C(=O)NO)cn1 [Compound 89]	< 100 nM	< 100 nM	1000 to 10000 nM	
CN(Cc1cc2nc(-c3ccc([N+](=O)[O-])c(O)c3)nc(N3CCOCC3)c2s1)c1ncc(C(=O)NO)cn1 [Compound 293, N-Hydroxy-2-(((2-(3-hydroxy-4-nitrophenyl)-4-morpholinothieno[3,2-d]pyrimidin-6-yl)methyl)(methyl)amino)pyrimidine-5-carboxamide]	< 100 nM	< 100 nM	> 10000 nM	
CC(=O)c1ccc(F)c(-c2nc(N3CCOCC3)c3sc(CN(C)c4ncc(C(=O)NO)cn4)cc3n2)c1 [Compound 301]	< 100 nM	1000 to 10000 nM	> 10000 nM	
O=C(NO)c1cnc(N2CCC(CNCc3cc4nc(-c5cccc6[nH]ncc56)nc(N5CCOCC5)c4s3)CC2)nc1 [Compound 15, 2-(4-(((2-(1H-indazol-4-yl)-4-morpholinothieno[3,2-d]pyrimidin-6-yl)methylamino)methyl)piperidin-1-yl)-N-hydroxypyrimidine-5-carboxamide]	< 100 nM	100 to 1000 nM	> 10000 nM	170 to 172 °C
CN(Cc1cc2nc(-c3ccc4c(c3)NC(=O)CO4)nc(N3CCOCC3)c2s1)c1ncc(C(=O)NO)cn1 [Compound 183]	< 100 nM	> 10000 nM	> 10000 nM	
CC(=O)OCCN(Cc1cc2nc(-c3cccc4[nH]ncc34)nc(N3CCOCC3)c2s1)c1ncc(C(=O)NO)cn1 [Compound 87]	< 100 nM	< 100 nM	1000 to 10000 nM	
COc1ccc(-c2nc(N3CCOCC3)c3sc(CN(CCO)c4ncc(C(=O)NO)cn4)cc3n2)cn1 [Compound 265]	< 100 nM	< 100 nM	> 10000 nM	
CC(=O)NCc1ccc(-c2nc(N3CCOCC3)c3sc(CN(C)c4ncc(C(=O)NO)cn4)cc3n2)cc1 [Compound 136, 2-(((2-(4-(acetamidomethyl)phenyl)-4-morpholinothieno[3,2-d]pyrimidin-6-yl)methyl)(methyl)amino)-N-hydroxypyrimidine-5-carboxamide]		> 10000 nM	> 10000 nM	178 to 180 °C
Cn1cc(-c2nc(N3CCOCC3)c3sc(CN(CCO)c4ncc(C(=O)NO)cn4)cc3n2)cn1 [Compound 313]	< 100 nM	100 to 1000 nM	> 10000 nM	
CN(Cc1cc2nc(-c3ccc(C(F)(F)F)cc3)nc(N3CCOCC3)c2s1)c1ncc(C(=O)NO)cn1 [Compound 202, N-hydroxy-2-(methyl((4-morpholino-2-(4-(trifluoromethyl)phenyl)thieno[3,2-d]pyrimidin-6-yl)methyl)amino)pyrimidine-5-carboxamide]	< 100 nM	100 to 1000 nM		222 to 223 °C
CN(Cc1cc2nc(-c3cccc(SCCO)c3)nc(N3CCOCC3)c2s1)c1ncc(C(=O)NO)cn1 [Compound 290, N-Hydroxy-2-(((2-(3-(2-hydroxyethylthio)phenyl)-4-morpholinothieno[3,2-d]pyrimidin-6-yl)methyl)(methyl)amino)pyrimidine-5-carboxamide]	< 100 nM	100 to 1000 nM		188 to 192 °C
Nc1ccc(-c2nc(N3CCOCC3)c3sc(CN(CCO)c4ncc(C(=O)NO)cn4)cc3n2)cc1 [Compound 274]	< 100 nM	< 100 nM	100 to 1000 nM	
